15 compounds from PubChem BioAssay (NCI) can be followed below.

Structures are written as SMILES.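 Cells were grown in 96-well plates and exposed to each compound for 48 hours at five concentrations; endpoints were interpolated linearly between bracketing concentrations, or set to the highest concentration if not reached. TGI is the concentration that stops growth completely.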 Bounds are passed on as bounds.

Among the test systems are RPMI-8226 leukemia; SK-MEL-2 melanoma; CCRF-CEM leukemia; SNB-75 CNS; HCT-116 colon; SK-MEL-28 melanoma; SF-539 CNS; SK-MEL-5 melanoma; OVCAR-3 ovarian.
Experiment in all cases: NCI tumour cell line growth inhibition, 48 h

In the case of `COc1ccc(/C=C2\C(=O)Nc3ccccc32)cc1OC`, the TGI in the assay with RPMI-8226 leukemia is 64 µM; in the assay with SK-MEL-2 melanoma, more than 100 µM; with CCRF-CEM leukemia it was more than 100 µM; in the assay with SNB-75 CNS, 81.3 µM; with HCT-116 colon it was more than 100 µM; in the assay with SK-MEL-28 melanoma, more than 100 µM. The TGI with SF-539 CNS and in the assay with SK-MEL-5 melanoma was more than 100 µM throughout.
Take `CCCCN(CCCC)C(=O)C(=O)C(C(=O)C(=O)OC)c1nc2ccccc2o1` (stereo not drawn): the TGI with SK-MEL-2 melanoma, with CCRF-CEM leukemia, in the assay with SNB-75 CNS, in the assay with HCT-116 colon, in the assay on SK-MEL-28 melanoma and in the assay on SF-539 CNS was more than 100 µM each time. In addition, the TGI in the assay with OVCAR-3 ovarian and in the assay with SK-MEL-5 melanoma was more than 100 µM in each case.
On to `Cn1cnc([N+](=O)[O-])c1Sc1nccn1-c1ccccc1`, for which the TGI in the assay with RPMI-8226 leukemia is more than 100 µM; with SK-MEL-2 melanoma it was 99.3 µM; with CCRF-CEM leukemia, more than 100 µM; in the assay on SNB-75 CNS it was more than 100 µM; in the assay with HCT-116 colon, more than 100 µM; with SK-MEL-28 melanoma, more than 100 µM. Moreover, the TGI in the assay with SF-539 CNS, with OVCAR-3 ovarian and in the assay with SK-MEL-5 melanoma was more than 100 µM each time.
As to `OCC(O)COc1ccc(F)cc1` (stereo not drawn), the TGI with SK-MEL-2 melanoma, in the assay with CCRF-CEM leukemia, in the assay on SNB-75 CNS, in the assay with HCT-116 colon, in the assay on SK-MEL-28 melanoma and in the assay on SF-539 CNS was more than 100 µM in each case. In addition, the TGI in the assay on OVCAR-3 ovarian and in the assay with SK-MEL-5 melanoma was more than 100 µM in each case.
As to `Cc1cc2c(=O)cc(-c3ccc(Cl)cc3Cl)oc2c(C(=O)O)c1C`, the TGI in the assay on RPMI-8226 leukemia, with SK-MEL-2 melanoma, in the assay on CCRF-CEM leukemia, in the assay with SNB-75 CNS, in the assay on HCT-116 colon and in the assay on SK-MEL-28 melanoma was more than 100 µM throughout. In addition, the TGI in the assay with SF-539 CNS, in the assay on OVCAR-3 ovarian and in the assay on SK-MEL-5 melanoma was more than 100 µM in each case.
With `COC1OC(CO)C(O)C(NC(=O)N(C)N=O)C1O` (stereo not drawn), the TGI in the assay with RPMI-8226 leukemia, in the assay with SK-MEL-2 melanoma, in the assay on CCRF-CEM leukemia, in the assay on SNB-75 CNS, in the assay on HCT-116 colon and in the assay on SK-MEL-28 melanoma was more than 100 µM throughout. For the same compound, the TGI with SF-539 CNS, in the assay with OVCAR-3 ovarian and in the assay with SK-MEL-5 melanoma was more than 100 µM each time.
In the case of `COc1cc(/C=C(\C)c2ccc3c(c2)OCO3)cc(OC)c1OC`, the TGI is 63.6 µM in the assay on SK-MEL-2 melanoma; more than 100 µM with CCRF-CEM leukemia; 37.8 µM in the assay with SNB-75 CNS; more than 100 µM in the assay on HCT-116 colon; more than 100 µM in the assay with SK-MEL-28 melanoma; 58.7 µM in the assay with SF-539 CNS. The values for the TGI in the assay on OVCAR-3 ovarian and in the assay on SK-MEL-5 melanoma were more than 100 µM and 24.2 µM, respectively.
For the compound `NC(=S)N/N=C/c1cn(CCCl)c2ccccc12`, the TGI in the assay with RPMI-8226 leukemia is more than 100 µM; with SK-MEL-2 melanoma, more than 100 µM; in the assay on CCRF-CEM leukemia, more than 100 µM; with SNB-75 CNS, 86 µM; in the assay on HCT-116 colon, more than 100 µM; in the assay with SK-MEL-28 melanoma, more than 100 µM. The TGI in the assay on OVCAR-3 ovarian is more than 100 µM; in the assay on SK-MEL-5 melanoma, 67.4 µM.
Turning to `CC(=O)OC1C(COC(N)=O)OC(n2c(-c3ccc(C)cc3)cc(-c3ccccc3)c(C#N)c2=O)C(OC(C)=O)C1OC(C)=O` (stereo not drawn), the TGI in the assay with RPMI-8226 leukemia, in the assay on SK-MEL-2 melanoma, in the assay with CCRF-CEM leukemia, in the assay on SNB-75 CNS, in the assay on HCT-116 colon and with SK-MEL-28 melanoma was more than 100 µM each time. The TGI in the assay with SF-539 CNS, with OVCAR-3 ovarian and in the assay on SK-MEL-5 melanoma was more than 100 µM throughout.
For `Cc1cc2c(=O)cc(-c3ccc(Cl)c(Cl)c3)oc2c(C(=O)O)c1C`, the TGI with RPMI-8226 leukemia, in the assay on SK-MEL-2 melanoma, in the assay on CCRF-CEM leukemia, in the assay with SNB-75 CNS, with HCT-116 colon and in the assay with SK-MEL-28 melanoma was more than 100 µM throughout. In addition, the TGI in the assay with SF-539 CNS, in the assay with OVCAR-3 ovarian and with SK-MEL-5 melanoma was more than 100 µM in each case.
As for `COC(=O)C(=O)C(C(=O)C(=O)Nc1ccccc1C(N)=O)c1nc2ccc([N+](=O)[O-])cc2[nH]c1=O` (stereo not drawn), the TGI in the assay on RPMI-8226 leukemia, in the assay with SK-MEL-2 melanoma, in the assay with CCRF-CEM leukemia, in the assay with SNB-75 CNS, with HCT-116 colon and in the assay with SK-MEL-28 melanoma was more than 100 µM each time. Moreover, the TGI in the assay with SF-539 CNS and with SK-MEL-5 melanoma was more than 100 µM each time.
Regarding `Cc1cc2c(=O)cc(-c3ccc(C(=O)O)cc3)oc2c(C(N)=O)c1C`, the TGI with RPMI-8226 leukemia, in the assay with SK-MEL-2 melanoma, in the assay on CCRF-CEM leukemia, in the assay on SNB-75 CNS, in the assay with HCT-116 colon and in the assay on SK-MEL-28 melanoma was more than 100 µM in each case. For the same compound, the TGI in the assay on SF-539 CNS, with OVCAR-3 ovarian and in the assay on SK-MEL-5 melanoma was more than 100 µM in each case.
With `CNC(=O)N(CCCC(NC(C)=O)C(=O)NCc1ccccc1)Cc1ccccc1` (stereo not drawn), the TGI in the assay with RPMI-8226 leukemia, in the assay on SK-MEL-2 melanoma, in the assay on CCRF-CEM leukemia, in the assay with SNB-75 CNS, in the assay on HCT-116 colon and in the assay with SK-MEL-28 melanoma was more than 100 µM in each case. Also, the TGI in the assay on SF-539 CNS, in the assay on OVCAR-3 ovarian and in the assay on SK-MEL-5 melanoma was more than 100 µM in each case.
On to `C=CCC1=C2CCCCC2CCC1=O` (stereo not drawn), for which the TGI in the assay on RPMI-8226 leukemia, in the assay with SK-MEL-2 melanoma, with CCRF-CEM leukemia, in the assay on SNB-75 CNS, in the assay on HCT-116 colon and in the assay with SK-MEL-28 melanoma was more than 100 µM throughout. Also, the TGI in the assay with SF-539 CNS, in the assay on OVCAR-3 ovarian and in the assay with SK-MEL-5 melanoma was more than 100 µM in each case.
On to `CCOc1ccc(N=C2NC(=O)C(CC(=O)Nc3ccc(Cl)cc3Cl)S2)cc1` (stereo not drawn), for which the TGI in the assay on RPMI-8226 leukemia, with SK-MEL-2 melanoma, in the assay with CCRF-CEM leukemia, in the assay on SNB-75 CNS, with SK-MEL-28 melanoma and with SF-539 CNS was more than 100 µM each time. Further, the TGI with OVCAR-3 ovarian and in the assay on SK-MEL-5 melanoma was more than 100 µM in each case.
